Results on one molecule are retold here after publication PMC9664070, “The anticonvulsant phytocannabinoids CBGVA and CBDVA inhibit recombinant T-type channels” (Frontiers in Pharmacology, 2022).

Usually pIC50 stands for −log10 of the IC50, conventionally taken in molar units.

The test system of one data set is diacylglycerol lipase. Also noted: method as in de Petrocellis et al., 2011. The note with it: ref de Petrocellis et al., 2011; cited from earlier work.
Data set [1] relates to hyperthermia-induced seizures. On the set-up: method as in earlier work. The settings on record: Scn1a+/- mice, ref Anderson et al., 2019, 2021a, 2021b; cited from earlier work.
For data set [2] the following is noted: ref Anderson et al., cited from earlier work.
Another data set has as its target T1, GPR55 (Homo sapiens, UniProt Q9Y2T6).
T1 construct: expressed in transfected cells; host or cells: HEK 293
Put plainly: Alphascreen ERK phosphorylation assay, antagonism of ML-186-induced ERK phosphorylation. The settings on record: in the presence of EC80 of ML-186 (0.45 µM), HEK 293 GPR55 cells. The class given is cell-based. The protocol: (§1) Unless otherwise stated, five independent experiments were performed for each condition, with each experiment conducted in duplicate. For the calcium assay, change in fluorescence by 10 mM Ca in the presence of drugs was normalised to change in fluorescence caused by 10 mM Ca in the presence of vehicle only to allow for comparison. In the Alphascreen assay, results were normalised to EC80 of ML-186 after subtraction of basal ERK phosphorylation (presence of a vehicle and 0.2% DMSO) to allow for easy comparison between phytocannabinoid activities. We fitted all concentration-response curves to a 4-parameter sigmoidal inhibitory response curve in GraphPad Prism (Version 6 GraphPad Software Inc., CA, United States) to derive IC50 and Emax values. All statistical analyses were conducted with GraphPad Prism. Two-tailed, unpaired t-tests were used to compare two data points and one-way ANOVA for more than two data points with Tukey post-hoc analysis. p-values < 0.05 were considered statistically significant.

The target of another data set is T2, Cav3.1 (Homo sapiens, UniProt O43497).
T2 construct: expressed in transfected cells; host or cells: HEK293 Flp-In T-REx
Put plainly: FLIPR calcium 5 assay, inhibition of 10 mM Ca-induced fluorescence. The settings on record: FLIPR concentration-response, HEK293 Cav3.1 cells; read-out: IC50, inhibition of change in fluorescence, Cav3.1. The data set is classed as cell-based. As to the method:
(§2) Calcium 5 dye (Molecular Devices, United States ) was used to investigate compound activities at T-type calcium channels using Flexstation III. HEK293 cells overexpressing Cav3.1, Cav 3.2, and Cav 3.3 cells were resuspended in Leibovitz’s L-15 media containing 1% FBS, 1% P/S and 15 mM glucose. 90 µl of the resuspended cells (120,000 cells/well) were plated in a black-walled, 96-well microplate (Corning, NY, United States ) and incubated overnight in humidified air at 37°C. Channel expression was induced with tetracycline (2 μg/ml, Sigma-Aldrich) at plating. On the day of the assay, 90 µl of HBSS containing 5% Calcium dye (bulk kit) and 2.5 mM probenecid (Invitrogen, United States ) was added to each well and incubated for 1 h at 37°C. Change in fluorescence was measured in a FlexStation III plate reader every 2 s (ʎexcitation = 485 nm, ʎemission = 525 nm) for the duration of the experiment at 37°C. After 2 min baseline recording, drugs (20 µL) were added and read for 5 min, followed by 10 mM CaCl2 (20 µl) and read for a further 3 min.
as §1
(§3) Our investigation of T-type channels began with a single-point screen, as described by [Bladen et al. (2021)]. We screened the inhibitory effect of 10 µM phytocannabinoids on the change in fluorescence elicited by the addition of 10 mM Ca^2+ in cells expressing Cav3.1, Cav3.2 or Cav3.3 channels ([Xie et al., 2007]; [Bladen et al., 2021]).

The target in another data set is T3, Cav3.2 (Homo sapiens, UniProt O95180).
T3 construct: expressed in transfected cells; host or cells: HEK293 Flp-In T-REx
T3 sequence (O95180 whole entry): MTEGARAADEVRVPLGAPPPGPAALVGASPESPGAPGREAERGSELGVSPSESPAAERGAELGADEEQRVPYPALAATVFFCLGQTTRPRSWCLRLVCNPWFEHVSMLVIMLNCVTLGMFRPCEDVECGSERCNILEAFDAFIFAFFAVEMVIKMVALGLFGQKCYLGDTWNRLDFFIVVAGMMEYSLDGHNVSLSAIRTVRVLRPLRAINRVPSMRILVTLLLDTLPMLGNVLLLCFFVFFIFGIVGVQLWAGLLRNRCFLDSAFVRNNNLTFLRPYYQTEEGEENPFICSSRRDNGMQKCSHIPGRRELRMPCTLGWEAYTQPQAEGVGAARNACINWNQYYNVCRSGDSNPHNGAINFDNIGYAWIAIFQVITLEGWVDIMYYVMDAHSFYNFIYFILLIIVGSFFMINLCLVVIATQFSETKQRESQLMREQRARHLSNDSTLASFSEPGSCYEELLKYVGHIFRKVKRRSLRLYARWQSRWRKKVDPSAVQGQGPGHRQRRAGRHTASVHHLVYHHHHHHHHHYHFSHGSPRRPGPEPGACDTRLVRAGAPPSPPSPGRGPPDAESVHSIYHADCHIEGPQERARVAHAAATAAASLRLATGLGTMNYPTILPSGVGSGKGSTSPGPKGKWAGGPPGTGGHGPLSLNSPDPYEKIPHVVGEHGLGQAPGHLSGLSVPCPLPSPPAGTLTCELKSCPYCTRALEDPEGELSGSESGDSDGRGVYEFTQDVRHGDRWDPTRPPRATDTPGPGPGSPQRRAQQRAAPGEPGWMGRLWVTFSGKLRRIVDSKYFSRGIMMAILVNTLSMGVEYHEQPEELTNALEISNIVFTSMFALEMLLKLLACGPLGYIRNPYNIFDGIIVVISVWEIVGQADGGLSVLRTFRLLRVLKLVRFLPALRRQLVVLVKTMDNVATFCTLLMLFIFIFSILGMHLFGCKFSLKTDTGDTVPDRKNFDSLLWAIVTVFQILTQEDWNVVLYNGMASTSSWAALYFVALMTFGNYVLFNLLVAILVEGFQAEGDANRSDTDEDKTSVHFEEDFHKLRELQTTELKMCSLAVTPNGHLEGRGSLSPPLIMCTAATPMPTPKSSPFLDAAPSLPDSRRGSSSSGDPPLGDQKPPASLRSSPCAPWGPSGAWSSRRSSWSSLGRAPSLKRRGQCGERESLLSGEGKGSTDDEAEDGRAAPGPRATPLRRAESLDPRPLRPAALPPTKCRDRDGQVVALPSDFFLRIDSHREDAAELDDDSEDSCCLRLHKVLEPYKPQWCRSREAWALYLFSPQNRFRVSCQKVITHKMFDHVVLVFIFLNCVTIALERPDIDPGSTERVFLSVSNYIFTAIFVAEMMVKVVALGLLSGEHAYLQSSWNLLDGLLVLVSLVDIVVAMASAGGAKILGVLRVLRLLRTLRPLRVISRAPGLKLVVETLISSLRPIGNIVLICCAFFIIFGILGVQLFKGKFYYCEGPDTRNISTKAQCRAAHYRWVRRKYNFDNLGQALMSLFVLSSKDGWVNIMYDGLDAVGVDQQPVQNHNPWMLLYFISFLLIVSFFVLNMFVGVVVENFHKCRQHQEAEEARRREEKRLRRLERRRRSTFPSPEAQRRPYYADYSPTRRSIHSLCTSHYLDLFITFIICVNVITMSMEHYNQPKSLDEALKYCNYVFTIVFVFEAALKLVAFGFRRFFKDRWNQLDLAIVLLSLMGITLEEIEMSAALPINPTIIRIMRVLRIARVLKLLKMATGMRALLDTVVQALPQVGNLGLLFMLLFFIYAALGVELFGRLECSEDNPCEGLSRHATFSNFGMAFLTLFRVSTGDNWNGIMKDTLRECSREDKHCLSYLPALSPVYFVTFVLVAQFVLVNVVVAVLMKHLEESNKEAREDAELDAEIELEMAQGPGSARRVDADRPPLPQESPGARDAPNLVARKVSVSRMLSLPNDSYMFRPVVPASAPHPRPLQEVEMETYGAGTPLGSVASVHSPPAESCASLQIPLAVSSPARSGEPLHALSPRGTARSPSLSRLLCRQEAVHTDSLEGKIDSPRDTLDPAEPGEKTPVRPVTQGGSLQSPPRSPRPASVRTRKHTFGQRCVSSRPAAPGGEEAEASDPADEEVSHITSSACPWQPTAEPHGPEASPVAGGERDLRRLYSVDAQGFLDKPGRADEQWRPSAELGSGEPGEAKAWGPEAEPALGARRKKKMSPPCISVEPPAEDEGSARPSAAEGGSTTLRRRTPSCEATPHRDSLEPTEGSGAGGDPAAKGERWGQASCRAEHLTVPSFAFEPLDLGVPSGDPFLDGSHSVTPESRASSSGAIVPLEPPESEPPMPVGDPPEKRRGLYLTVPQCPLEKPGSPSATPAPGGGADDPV
Described as above. The settings on record: FLIPR concentration-response, HEK293 Cav3.2 cells; read-out: IC50, inhibition of change in fluorescence, Cav3.2. The class given is cell-based. As to the method: as §2, §1, §3

A further data set deals with T4, Cav3.3 (Homo sapiens, UniProt Q9P0X4).
T4 construct: expressed in transfected cells; host or cells: HEK293 Flp-In T-REx
T4 sequence (Q9P0X4 whole entry): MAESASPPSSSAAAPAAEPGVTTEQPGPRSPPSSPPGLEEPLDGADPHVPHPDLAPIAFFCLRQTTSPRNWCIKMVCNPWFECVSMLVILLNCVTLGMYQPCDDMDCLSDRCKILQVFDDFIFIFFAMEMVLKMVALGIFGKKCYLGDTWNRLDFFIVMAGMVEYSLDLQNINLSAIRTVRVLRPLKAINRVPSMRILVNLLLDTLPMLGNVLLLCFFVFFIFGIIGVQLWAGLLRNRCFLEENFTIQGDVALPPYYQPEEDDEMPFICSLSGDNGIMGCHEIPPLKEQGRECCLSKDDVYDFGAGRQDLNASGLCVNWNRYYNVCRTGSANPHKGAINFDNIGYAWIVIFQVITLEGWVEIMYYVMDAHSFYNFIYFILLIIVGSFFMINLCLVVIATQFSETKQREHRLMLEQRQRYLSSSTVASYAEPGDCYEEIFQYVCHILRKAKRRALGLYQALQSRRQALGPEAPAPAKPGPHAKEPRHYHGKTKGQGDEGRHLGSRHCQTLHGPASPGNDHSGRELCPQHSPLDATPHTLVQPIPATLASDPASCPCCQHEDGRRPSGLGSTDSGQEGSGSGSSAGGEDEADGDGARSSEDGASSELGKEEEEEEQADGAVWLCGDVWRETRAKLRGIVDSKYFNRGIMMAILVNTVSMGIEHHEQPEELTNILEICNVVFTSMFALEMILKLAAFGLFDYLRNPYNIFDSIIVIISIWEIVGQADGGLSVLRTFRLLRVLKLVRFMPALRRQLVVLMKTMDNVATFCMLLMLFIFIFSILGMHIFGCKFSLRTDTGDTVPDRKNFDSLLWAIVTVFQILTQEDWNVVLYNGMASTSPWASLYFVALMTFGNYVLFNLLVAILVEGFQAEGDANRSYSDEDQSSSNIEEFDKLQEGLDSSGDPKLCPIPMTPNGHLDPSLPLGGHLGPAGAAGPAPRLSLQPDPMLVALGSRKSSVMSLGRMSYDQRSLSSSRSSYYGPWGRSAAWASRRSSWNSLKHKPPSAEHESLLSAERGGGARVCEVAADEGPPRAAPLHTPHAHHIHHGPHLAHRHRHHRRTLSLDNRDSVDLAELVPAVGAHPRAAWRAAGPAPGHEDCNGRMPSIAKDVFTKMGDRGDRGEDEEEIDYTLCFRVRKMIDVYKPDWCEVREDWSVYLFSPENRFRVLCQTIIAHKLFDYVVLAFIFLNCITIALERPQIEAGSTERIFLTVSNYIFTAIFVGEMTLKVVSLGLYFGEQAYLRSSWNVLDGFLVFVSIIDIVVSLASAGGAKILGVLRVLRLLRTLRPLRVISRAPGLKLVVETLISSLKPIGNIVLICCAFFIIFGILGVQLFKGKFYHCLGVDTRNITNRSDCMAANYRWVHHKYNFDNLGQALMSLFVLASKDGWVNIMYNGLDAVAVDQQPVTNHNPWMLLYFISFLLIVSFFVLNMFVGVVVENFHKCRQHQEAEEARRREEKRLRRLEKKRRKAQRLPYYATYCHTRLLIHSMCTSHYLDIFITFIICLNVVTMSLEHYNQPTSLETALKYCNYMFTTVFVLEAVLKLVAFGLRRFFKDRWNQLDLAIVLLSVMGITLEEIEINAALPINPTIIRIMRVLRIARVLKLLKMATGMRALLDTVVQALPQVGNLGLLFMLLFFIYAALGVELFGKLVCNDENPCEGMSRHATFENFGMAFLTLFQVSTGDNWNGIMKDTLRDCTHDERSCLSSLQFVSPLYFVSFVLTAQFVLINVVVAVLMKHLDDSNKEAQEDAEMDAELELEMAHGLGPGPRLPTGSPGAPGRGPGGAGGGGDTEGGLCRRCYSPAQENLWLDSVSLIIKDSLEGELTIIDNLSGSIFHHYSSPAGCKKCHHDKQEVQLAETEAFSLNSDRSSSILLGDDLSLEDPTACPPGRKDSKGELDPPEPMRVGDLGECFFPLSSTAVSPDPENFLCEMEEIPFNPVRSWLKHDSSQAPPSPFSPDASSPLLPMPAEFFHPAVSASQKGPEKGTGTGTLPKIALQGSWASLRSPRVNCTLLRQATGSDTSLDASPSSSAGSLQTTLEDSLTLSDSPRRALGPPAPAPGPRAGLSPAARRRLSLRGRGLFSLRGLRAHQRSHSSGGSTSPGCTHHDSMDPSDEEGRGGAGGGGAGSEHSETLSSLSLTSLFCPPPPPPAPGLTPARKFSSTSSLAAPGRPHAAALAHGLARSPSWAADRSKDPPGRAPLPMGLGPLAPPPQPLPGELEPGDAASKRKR
Described as above. The settings on record: 10 µM compound, HEK293 cells, mean ± SEM. The data set is classed as cell-based. The protocol:
as §2, §1, §3

The subject of data set [3] is dorsal root ganglion neurons. Also noted: method as in Straiker et al., 2021. The note with it: ref Straiker et al., 2021; cited from earlier work.

pIC50: −log10 of the molar value.

T1 sequence (Q9Y2T6 whole entry, species assumed): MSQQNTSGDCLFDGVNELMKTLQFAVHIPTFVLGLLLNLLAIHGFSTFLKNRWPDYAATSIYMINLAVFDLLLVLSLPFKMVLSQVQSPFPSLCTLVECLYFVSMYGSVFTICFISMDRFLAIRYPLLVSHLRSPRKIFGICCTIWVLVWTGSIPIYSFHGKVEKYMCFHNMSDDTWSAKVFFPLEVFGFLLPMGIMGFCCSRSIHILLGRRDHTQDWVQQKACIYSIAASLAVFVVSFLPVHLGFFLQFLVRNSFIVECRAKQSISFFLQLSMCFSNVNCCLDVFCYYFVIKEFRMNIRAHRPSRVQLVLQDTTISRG

Regarding `C=C(C)[C@@H]1CCC(C)=C[C@H]1c1c(O)cc(CCC)c(C(=O)O)c1O` [CBDVA, cannabidivarinic acid], in the data set with diacylglycerol lipase, the “inhibition of diacylglycerol lipase” value is reported as “inhibit the endocannabinoid synthetic enzyme diacylglycerol lipase at a relatively high concentration”. Besides, in data set [1], the “effect against hyperthermia-induced seizures” value is “anticonvulsant”. Besides, the Peak plasma concentration in data set [2] (anticonvulsant doses in mice, 2021b) is recorded as around 239 µM. Besides, the brain-plasma ratio in data set [2] (2019) is on record as 2%. Also, the pIC50 was 5.00 on GPR55, 5.70 at Cav3.1 and 4.96 at Cav3.2. Besides, the “% Inhibition of Fluorescence Cav3.3” value at Cav3.3 came to 8 ± 4%. In addition, the “effect on calcium responses” value in data set [3] is “did not alter calcium responses”.
